# Laboratory results as given in patent publication US7763582B2 (University of Medicine and Dentistry Of New Jersey, priority 2006, dated 2010).
# Assays:
# fractured femora [1] = experiment: Mechanical (torsional) testing of fractured femora, Sprague-Dawley rats; assay type: in vivo; details: 4 weeks
# Description: (§1) A closed mid-diaphyseal fracture was created in the right femur using the following modification of the methods described in Bonnarens, F., and Einhorn, T. A., “Production of a standard closed fracture in laboratory animal bone,” J. Orthop. Res., vol. 2, pages 97-101 (1984). Once a medial, parapatellar incision was made, the patella was dislocated laterally and the interchondylar notch of the distal femur was exposed. An entry hole was made with an 18 gauge needle and the femur was reamed. A 16 gauge teflon cannula was then inserted into the intramedullary canal to stabilize the fracture while a closed midshaft fracture was created unilaterally with the use of a three-point bending, Einhorn fracture machine. Once the fracture was created, the cannula was removed and replaced with a 1.2 mm hollow rod in the Sprague-Dawley rats and a 1 mm Kirschner wire in the BB Wistar rat. […] The animals were allowed to ambulate freely immediately post-fracture.
# (§2) Fractured and contralateral femora were resected at 4 weeks and cleaned of soft tissue. Femora were cleaned of soft tissue and the intramedullary rod was removed. Samples were wrapped in saline (0.9% NaCl) soaked gauze and stored at −20° C. Prior to testing, all femora were removed from the freezer and allowed to thaw to room temperature for three to four hours. The proximal and distal ends of the fractured and contralateral femora were embedded in Wood's metal. Torsional testing was conducted using a servohydraulics machine (MTS Systems Corp., Eden Prairie, Minn.) with a 20 Nm reaction torque cell (Interface, Scottsdale, Ariz.) and tested to failure at a rate of 2.0 deg/sec.
# (§3) The peak torque (T), torsional rigidity (TR), […] (G) and the maximum shear stress ( ) were determined through standard equations modeling each femur as a hollow ellipse. In order to compare the biomechanical parameters between different groups, the data was normalized by dividing each fractured femur value by its corresponding intact, contralateral femur value.
# fractured femora [2] = experiment: Mechanical (torsional) testing of fractured femora, BB Wistar rats (Example 1); assay type: in vivo; details: 4 weeks
# Description: as §1, §2, §3
# fractured femora [3] = experiment: Qualitative histology of early fracture callus at day 4; assay type: in vivo, BB Wistar rats
# Description: as §1
# The fractured femora were resected at day 4, decalcified, embedded and sectioned using standard histological techniques. To identify cartilage formation, sections were stained with Accustain™ Trichrome Staining kit (Masson, Sigma Diagnostics, St. Louis, Mo.) for histologic observation. The staining procedure consisted of fixing the sections in Accustain™ Bouins solution (Sigma Diagnostics, St. Louis, Mo.) overnight. […]
# [4] = fractured femora, versus untreated, FIG. 3
# [5] = normalized to intact contralateral femora
# [6] = fractured femora, versus untreated, FIG. 4
substance,measurement,setting,value
ultralente insulin,maximum shear stress,fractured femora [1]; [4],significantly increased
same,sheer modulus,fractured femora [1]; [4],significantly increased
same,torque to failure,fractured femora [1]; [4],significantly increased
same,torsional rigidity,fractured femora [1]; [4],significantly increased
same,mechanical properties of the fractured femora,"fractured femora [1]; versus untreated group, FIG. 3",improved
same,percent maximum shear stress,fractured femora [1]; [5],trending towards significance
same,percent sheer modulus,fractured femora [1]; [5],significantly increased
same,percent torque to failure,fractured femora [1]; [5],trending towards significance
same,percent torsional rigidity,fractured femora [1]; [5],significantly increased
same,maximum shear stress,fractured femora [2]; [6],significantly increased
same,sheer modulus,fractured femora [2]; [6],trending towards significance
same,torque to failure,fractured femora [2]; [6],significantly increased
same,torsional rigidity,fractured femora [2]; [6],trending towards significance
same,mechanical properties of the fractured femora,"fractured femora [2]; versus untreated group, FIG. 4",improved
same,percent sheer modulus,fractured femora [2]; [5],trending towards significance
same,percent torsional rigidity,fractured femora [2]; [5],trending towards significance
same,osteoid matrix in callus,fractured femora [3]; not present in untreated group,present
same,chondrocytes in fracture callus (histology),"fractured femora [3]; untreated group showed only proliferating chondrocytes, FIG. 2",presence of proliferating and hypertrophic chondrocytes
